{
  "source": "patent US4744985A",
  "about": "“Novel substances having carcinostatic and immunostimulating activity, process for preparing the same and carcinostatic agent containing the same” (Toyama Chemical Co., Ltd., priority 1979, dated 1988)",
  "key": {"B-16 melanoma [1]": {"tested_on": "B-16 melanoma", "assay": "Antitumor activity against B-16 melanoma (tumor growth)", "type": "in vivo, BDF1 strain mice (male, 7 weeks old)", "details": "20 mg/kg × 6", "description": "(§1) (1) B-16 Melanoma tumor cells were subcutaneously transplanted at the armpit to BDF1 strain mice (male, 7 weeks old) in an amount of 1×10^6 cells per mouse. Subsequently, TF-133a was intraperitoneally administered to the mice in a dosage of 5 mg/kg or 10 mg/kg once a day on the first day and from the third day to the seventh day, for 6 days in total, after the transplantation of the tumor cells. In the same manner as above, 0.2 ml of a physiological salt solution was administered to the control group, and 20 mg/kg of 5-FU to the group for 5-FU administration."}, "B-16 melanoma [2]": {"tested_on": "B-16 melanoma", "assay": "Metastasis of B-16 melanoma tumor cells to the lungs", "type": "in vivo, BDF1 strain mice (male, 7 weeks old)", "details": "20 mg/kg × 6, 21st day", "description": "as §1\n(2) The transplantation of B-16 melanoma tumor cells and the administration of TF-132a, TF-133a, 5-FU and a physiological salt solution were carried out in the same manner as in above (1). On the 21st day after the transplantation of the tumor cells, the mice were dissected, and the metastasis of the melanoma tumor cells to the lungs was observed."}},
  "data": [
    {"smiles": "O=c1[nH]cc(F)c(=O)[nH]1", "note": "[5-FU]", "values": [
      {"measurement": "Average tumor weight", "setting": "B-16 melanoma [1]", "value": 4.21, "unit": "g"},
      {"measurement": "T/C", "setting": "B-16 melanoma [1]", "value": 72, "unit": "%"},
      {"measurement": "Average number of metastasis", "setting": "B-16 melanoma [2]", "value": 24.8},
      {"measurement": "Percentage of metastasis inhibition", "setting": "B-16 melanoma [2]", "value": 20, "unit": "%"}
    ]}
  ]
}
